Toxic doses and inconclusive results are not listed. Rule as the data show it: active = T/C of 150% or more; inactive = T/C below 125%.
Tested on: L1210 leukemia ip in BDF1 mice, survival T/C
Assay: NCI In Vivo Anticancer Drug Screen. Data for tumor model L1210 Leukemia (intraperitoneal) in B6D2F1 (BDF1) mice
Conditions: endpoint: mean survival time, higher = longer survival
How it was run: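 Transplanted-tumor mice were given test agent; controls received vehicle only. Survival readings from the two groups were divided (treated over control).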

Measured: T/C

O=S(=O)(c1ccccc1)c1nn2nnnc2c2ccccc12
inactive: dose: 50.0 mg/kg/injection, schedule: Q04DX003 (ip), vehicle: saline with Tween-80 107 % of control | dose: 100.0 mg/kg/injection, schedule: Q04DX003 (ip), vehicle: saline with Tween-80 104 % of control | dose: 200.0 mg/kg/injection, schedule: Q04DX003 (ip), vehicle: saline with Tween-80 103 % of control

COc1ccc(C(=O)N/N=C/c2cccc3ccccc23)cc1
inactive: dose: 100.0 mg/kg/injection, schedule: Q01DX009 (ip), vehicle: Klucel (hydroxypropylcellulose) (HPC) 105 % of control | dose: 200.0 mg/kg/injection, schedule: Q01DX009 (ip), vehicle: Klucel (hydroxypropylcellulose) (HPC) 103 % of control | dose: 400.0 mg/kg/injection, schedule: Q01DX009 (ip), vehicle: Klucel (hydroxypropylcellulose) (HPC) 108 % of control

COC(=O)c1cc(OC)nc(OC)c1
inactive: dose: 100.0 mg/kg/injection, schedule: Q04DX003 (ip), vehicle: Klucel (hydroxypropylcellulose) (HPC) 102 % of control | dose: 200.0 mg/kg/injection, schedule: Q04DX003 (ip), vehicle: Klucel (hydroxypropylcellulose) (HPC) 110 % of control | dose: 400.0 mg/kg/injection, schedule: Q04DX003 (ip), vehicle: Klucel (hydroxypropylcellulose) (HPC) 96 % of control

— PubChem BioAssay AID248 (DTP/NCI, 2004)
